In publication PMC11582070, “Template-assisted covalent modification underlies activity of covalent molecular glues” (Nature Chemical Biology, 2023):

What was measured:
[1] = biological target: T1, DCAF16 (Homo sapiens, UniProt O60885+Q9NXF7); test: intact protein MS ([…] adduct alone, […] with BRD4BD2; none with C58S); TR-FRET; format: binding
T1 construct: full length, in complex with DDB1ΔB; with BRD4 BD2 (template), DDB1ΔB

[2] = biological target: T1, DCAF16; test: intact protein MS; TR-FRET; format: binding

Row | Compound | intact protein MS (8% adduct alone, 50% with BRD4BD2; none with C58S); TR-FRET [1] | intact protein MS; TR-FRET [2]
1 | Cc1sc2c(c1C)C(c1ccc(/C=C/C=O)cc1)=N[C@@H](CC(=O)OC(C)(C)C)c1nnc(C)n1-2 [compound 2, TMX1] | By intact mass spectrometry, the DCAF16 C58S mutant completely eliminated DCAF16–TMX1 adduct formation | 
2 | C=CC(=O)Nc1ccc(C2=N[C@@H](CC(=O)OC(C)(C)C)c3nnc(C)n3-c3sc(C)c(C)c32)cc1 [compound 3, MMH1] |  | DCAF16 intact mass spectrometry experiments on MMH1 and MMH2 and found similar template-assisted covalent modifications
